In patent US10226478B2, “Dosage regimen for sapacitabine and decitabine in combination for treating acute myeloid leukemia” (Cyclacel Limited, priority 2011, dated 2019):
Where two headings read alike, the source gives them in different places.

Columns and labels:
HL60 cells [1] = assay: Annexin V staining (apoptosis, flow cytometry); details: single agents, azacitidine 72 and 96 hours, CNDAC 48 or 72 hours
Experimental: Single agent treatments were also performed as controls. After incubation cells were centrifuged at 500 g for 5 min, washed twice in PBS and once in annexin buffer (10 mM Hepes pH 7.4, 2.5 mM CaCl2, and 140 mM NaCl). Cells were resuspended at 1×10^6/ml and 100 μl was transferred to a 5 ml tube prior to incubation for 10 min in the dark at room temperature with 5 μl of annexin V-FITC stain (Beckton Dickinson) and 10 μl of propidium iodide [50 mg/ml]. Annexin buffer (1 ml) was added and the cells were analysed by flow cytometry. Annexin V positive cells (apoptotic) were designated on the basis of green fluorescence and propidium iodide (dead) positive cells were designated on the basis of red fluorescence.

MV4-11 cells = assay: 72 h single agent cytotoxicity, alamar blue assay; assay type: cell-based; details: Homo sapiens
Experimental: (§1) In order to complete the combination studies, the cytotoxic effects of individual compounds were determined.
(§2) A dilution series for each drug was prepared in medium. Two hours after seeding, an equal volume of each compound was added at twice the desired concentration and incubated for 72 hours. All treatments were performed in triplicate. At the end of the incubation, a 20% stock of alamar blue (Roche, Lewes, UK) was prepared in media, and an equal volume was added to each well and incubated for three hours. Absorbance was read at 544-595 nm and data was analysed (Excel Fit v4.0) to determine the IC50 (concentration of compound that inhibited cell growth by 50%) for each compound.

HL60 cells [2] = assay: 72 h single agent cytotoxicity, alamar blue assay; assay type: cell-based; details: Homo sapiens
Experimental: as §1, §2

[3] = test system: cell line that is resistant to cytarabine; details: cited from earlier work

Row | SMILES | annexin V, proportion of apoptotic cells (HL60 cells [1]) | IC50 (MV4-11 cells) [nM] | IC50 (HL60 cells [2]; HL-60, HL60 cells, 72 hour, read-out: 1×IC50) [nM] | IC50 (HL60 cells [2]; HL-60 cells, read-out: IC50) [nM] | IC50 (HL60 cells [2]; HL-60, HL60 cells, 72 hour, half of the IC50, read-out: 0.5×IC50) [nM] | IC50 (HL60 cells [2]; HL-60 cells, half of the IC50, read-out: 0.5×IC50) [nM] | IC50 ([3]; after 5-azacitidine (upregulation of dCK)) [nM] | IC50 ([3]; before 5-azacitidine) [nM]
1 | N#C[C@H]1[C@H](O)[C@@H](CO)O[C@H]1n1ccc(N)nc1=O [CNDAC, 1-(2-C-Cyano-2-deoxy-β-D-arabino-pentafuranosyl)-cytosine] | little effect | 460 | 133 | 130 |  |  |  | 
2 | Nc1ncn([C@@H]2O[C@H](CO)[C@@H](O)[C@H]2O)c(=O)n1 [azacitidine, 4-amino-1-β-D-ribofuranosyl-s-triazin-2(1H)-one] | small increase in the proportion of apoptotic cells |  |  |  | 128 | 130 |  | 
3 | Nc1ccn([C@@H]2O[C@H](CO)[C@@H](O)[C@@H]2O)c(=O)n1 [cytarabine] |  |  |  |  |  |  | 550 | 12500
